Measurements taken from ChEMBL document CHEMBL4190222, “Sulawesins A-C, Furanosesterterpene Tetronic Acids That Inhibit USP7, from a Psammocinia sp. Marine Sponge” (J Nat Prod, 2017).
Activity calls are given as the source filed them. The rule behind the calls is not given here.

Experiments:
[1] = target: T1, Ubiquitin carboxyl-terminal hydrolase 7 (Homo sapiens, UniProt Q93009); assay: Inhibition of recombinant His6-tagged human USP7 expressed in insect expression system using ubiquitin-Rh110 as substrate preincubated for 30 mins followed by substrate addition measured after 180 mins by fluorescence assay
Target sequence in this assay (Q93009 whole entry): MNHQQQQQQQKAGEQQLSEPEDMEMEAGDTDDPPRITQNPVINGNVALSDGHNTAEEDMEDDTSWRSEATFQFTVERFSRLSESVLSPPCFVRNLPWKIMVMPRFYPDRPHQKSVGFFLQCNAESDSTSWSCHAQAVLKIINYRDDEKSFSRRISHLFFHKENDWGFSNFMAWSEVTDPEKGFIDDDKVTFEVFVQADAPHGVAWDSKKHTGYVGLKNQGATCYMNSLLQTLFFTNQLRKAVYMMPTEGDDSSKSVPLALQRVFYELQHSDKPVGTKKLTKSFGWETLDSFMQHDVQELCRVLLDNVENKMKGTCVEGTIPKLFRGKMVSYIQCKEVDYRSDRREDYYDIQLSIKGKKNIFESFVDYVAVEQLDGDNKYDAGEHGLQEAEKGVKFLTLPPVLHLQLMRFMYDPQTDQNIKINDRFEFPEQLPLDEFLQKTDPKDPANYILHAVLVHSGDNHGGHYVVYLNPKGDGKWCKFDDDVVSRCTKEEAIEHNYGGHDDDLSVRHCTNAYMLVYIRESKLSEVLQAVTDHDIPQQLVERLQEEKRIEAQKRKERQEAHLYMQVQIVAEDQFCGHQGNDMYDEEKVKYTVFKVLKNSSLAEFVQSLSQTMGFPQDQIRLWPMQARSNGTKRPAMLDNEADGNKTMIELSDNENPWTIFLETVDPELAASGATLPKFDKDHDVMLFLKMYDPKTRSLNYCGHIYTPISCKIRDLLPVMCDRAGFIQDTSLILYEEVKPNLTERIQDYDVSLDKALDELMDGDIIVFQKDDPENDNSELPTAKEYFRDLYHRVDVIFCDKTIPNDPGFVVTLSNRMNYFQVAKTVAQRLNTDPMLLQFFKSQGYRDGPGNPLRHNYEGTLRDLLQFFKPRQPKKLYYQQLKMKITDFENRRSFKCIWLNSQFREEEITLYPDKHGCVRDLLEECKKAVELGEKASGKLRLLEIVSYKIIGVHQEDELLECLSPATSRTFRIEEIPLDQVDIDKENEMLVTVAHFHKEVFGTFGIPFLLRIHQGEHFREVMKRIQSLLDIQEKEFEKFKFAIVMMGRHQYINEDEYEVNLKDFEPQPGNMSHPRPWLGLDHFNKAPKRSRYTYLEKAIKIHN

[2] = target: T1, Ubiquitin carboxyl-terminal hydrolase 7; assay: Inhibition of recombinant His6-tagged human USP7 expressed in insect expression system […] using ubiquitin-Rh110 as substrate preincubated for 30 mins followed by substrate addition measured after 180 mins by fluorescence assay
Target sequence in this assay (Q93009 whole entry, looked up): as the sequence (Q93009 whole entry) above

SMILES | IC50 [1] | inhibition [2]
CC1=C(O)/C(=C/C(C)CC/C=C(/C)CCCc2coc(Cc3ccoc3)c2)OC1=O (mixture of isomers) | 3.5 µM | –
CCN1C(=O)C=CC1=O | – | Active
CC1=C(O)/C(=C/C(C)CC/C=C(/C)CCCC2=CC(=O)[C@@H](c3ccoc3)[C@@H]2O)OC1=O (mixture of isomers) | 4.6 µM | –

The remaining lines, values ahead:

IC50 [1] | inhibition [2] | SMILES
2.7 µM | – | CC1=C(O)/C(=C/C(C)CCC/C(C)=C/CCc2coc(Cc3ccoc3)c2)OC1=O (racemic)
2.8 µM | – | CC1=C(O)/C(=C/C(C)CCC/C(C)=C/CCC2=CC(=O)[C@@H](c3ccoc3)[C@@H]2O)OC1=O (mixture of isomers)
